{"source": "patent US9334272B2", "about": "“Derivatives of purinic and pyrimidinic antiviral agents and use thereof as potent anticancer agents” (Ramot at Tel-Aviv University Ltd., priority 2007, dated 2016)", "key": {"U-251 cells [1]": {"test_system": "U-251 cells", "assay": "Hoechst viability assay, U-251 glioma cells", "assay_type": "cell-based, human", "method": "(§1) Cells (in quadruplicate) at the specified density were suspended in 200 μL medium supplemented with 10% FCS seeded in 96-well plates for 24 hours, then exposed to the drugs for 72 hours. The viability of the cells was determined by Hoechst fluorescent assay as described by Nudelman et al., 2005. Leukemic cell viability after 72 hours of treatment was determined by an MTT (3-(4,5-dimethylthiazol-2-yl)-2,5-diphenyltetrazolium bromide) assay as described by Levovich et al., 2007.\n(§2) IC50 values were determined by linear regression of the percentage of survival following drug titration."}, "22RV1 cells": {"test_system": "22RV1 cells", "assay": "Hoechst viability assay, 22RV1 prostate carcinoma cells", "assay_type": "cell-based, human", "method": "as §1, §2"}, "phospho-H2AX (Ser139)": {"test_system": "phospho-H2AX (Ser139)", "assay": "Phospho-H2AX Western blot, U-251 cells", "assay_type": "cell-based, human", "settings": "60 μM, 0.5, 2 or 24 hours, peak after 2 hours", "method": "Cell lysates or acid extracted histones were solubilized in a concentrated (×4) loading buffer (62.5 mM Tris-HCl, pH 6.8, 1% SDS, 10% glycerol v/v, 1% dithiothreitol (DTT) and 0.1 mg/ml bromophenol blue). Proteins (10-40 μg) were run on SDS-PAGE, transferred to a nitrocellulose membrane (Schleicher & Schuell, Germany) and probed with the primary antibodies, followed by incubation with a horseradish peroxidase (HRP)-goat anti-rabbit IgG or HRP-rabbit anti-mouse IgG as secondary antibodies. HRP bound to the secondary antibodies was visualized by the enhanced chemiluminescence method using the Western Blotting Luminol reagent (Santa Cruz, Calif., USA). The membrane was exposed for 5 minutes to Chemiluminescence BioMax light film (Kodak, USA) and the intensity of the bands was measured with a VersaDoc instrument with a Quantityl program (Bio-Rad, USA). The fold increase of each specific protein was determined by the ratio of band intensities of treated and untreated cells, normalized to loading control (actin or total histone H3)."}, "proteasome": {"molecular_target": "T1, proteasome (Homo sapiens, UniProt P28074)", "T1 construct": "proteasome activity in U-251 cells treated for 4 or 24 hours; endogenous in cells; host or cells: U-251 cells (lysates of treated cells)", "T1 sequence (P28074 60-263)": "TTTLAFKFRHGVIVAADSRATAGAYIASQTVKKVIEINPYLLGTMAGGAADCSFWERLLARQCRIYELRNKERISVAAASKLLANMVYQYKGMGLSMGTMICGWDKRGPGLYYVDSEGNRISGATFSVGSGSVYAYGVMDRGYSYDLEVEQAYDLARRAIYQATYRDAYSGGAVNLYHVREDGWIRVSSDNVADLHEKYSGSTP", "assay": "Proteasome activity assay, U-251 cells", "assay_type": "cell-based", "settings": "U-251, 50 μM", "method": "The peptidase or chymotrypsin-like activity of the proteasome was assayed using N-succinyl-Leu-Leu-Val-Tyr-7-amido-4-methylcoumarin. The lysates (100 μL) were incubated with 13 (M of the substrate in 100 mM Tris, pH 7.5, for 1 hour with shaking at room temperature. The reaction was stopped by addition of ice-cold ethanol, and the samples were centrifuged for 5 minutes at 2500 g. The supernatants were collected and the fluorescence was measured with excitation/emission filters of 390/460 nm using the FluoStar fluorimeter. The protein concentration was determined using a BCATM kit (Pierce) and the proteasome activity was derived from the ratio of fluorescence at 460 nm/(g of protein. The percentage of proteasome activity was calculated relative to untreated cells."}, "U-251 cells [2]": {"test_system": "U-251 cells", "assay": "Cell cycle analysis (propidium iodide flow cytometry), U-251 cells", "assay_type": "cell-based, human", "method": "Cells (4×10^5) were seeded in 35 mm culture dishes and after 24 hours were starved in medium without serum for an additional 24 hours, and then treated with the drug for an additional 24 hours. The cells were then trypsinized to a single cell suspension in PBS, washed, and resuspended in PBS at a concentration of 10^6 cells/mL. The cells were fixed with 70% ethanol for 30 minutes at 4° C., centrifuged and resuspended in 1 ml PBS containing 0.1% Tween 20 and 0.05% bovine serum albumin (BSA). RNase free of DNase was added, and the cell suspension (10^6 cells) was incubated at […] for 30 minutes. The cell suspension was then chilled on ice to a temperature in the range of 2 to 8° C. Propidium iodide (50 μg/mL) was added to the cell suspension, which was than kept in the dark. Red fluorescence (>630 nm) was analyzed on the flow cytometer."}, "4T1 cells": {"test_system": "4T1 cells", "assay": "Hoechst viability assay, 4T1 breast carcinoma cells (Dox combination)", "assay_type": "cell-based, murine", "settings": "Mus musculus, 72 hours, 3 experiments", "method": "as §1, §2\nThe combination index for drug interaction was calculated by Chou's Median Effect Analysis (MEA) [Chou, 2006]. The combination index (CI) was defined as CI=D1/(DM)1+D2/(DM)2, where D1 and D2 are the doses of drug 1 and drug 2, respectively, (DM)1 and (DM)2 are the doses of drug 1 and drug 2 and their mixture (in a specified ratio) required to produce a median effect, e.g., IC50. CI<1, =1 or >1 indicates synergism, additive effect, and antagonism respectively."}, "[3]": {"test_system": "4T1 murine breast carcinoma", "assay": "Metastatic 4T1 breast carcinoma model", "assay_type": "in vivo, mice", "settings": "25 mg/kg, 4T1 model, p<0.05", "method": "The syngeneic murine breast carcinoma metastatic model was performed with 8-10 weeks old BALB-c mice implanted with 4T1 cells. When the tumor volume reached 75-180 mm^3 (after ˜10 days), treatment was initiated for an additional 21 days. At termination, the animals were sacrificed and their lungs removed, stained with Bouin's solution, and lung lesions were scored under an illuminated magnifying glass."}, "[4]": {"settings": "Homo sapiens, 72 hours, Hoechst, read-out: IC50"}}}
{"smiles": "CCCC(CCC)C(=O)Nc1nc2c(ncn2COCCOC(=O)C(CCC)CCC)c(=O)[nH]1", "note": "[Compound 6, N-valproyl-9-(2-valproyloxy)ethoxymethylguanine]", "values": [{"measurement": "activity relative to acyclovir", "setting": "U-251 cells [1]", "value": "> 100", "unit": "fold"}, {"measurement": "IC50", "setting": "U-251 cells [1]; [4]", "value": "32 ± 2", "unit": "µM"}, {"measurement": "activity relative to acyclovir", "setting": "22RV1 cells", "value": "> 100", "unit": "fold"}, {"measurement": "IC50", "setting": "22RV1 cells; [4]", "value": "23.2 ± 1.9", "unit": "µM"}, {"measurement": "level of phosphorylated H2AX", "setting": "phospho-H2AX (Ser139)", "value": "induced an increase in the level of phosphorylated H2AX"}, {"measurement": "inhibition at 50 µM", "setting": "proteasome; after 4 hours", "value": "> 50", "unit": "%"}, {"measurement": "inhibition at 50 µM", "setting": "proteasome; after 24 hours", "value": "> 75", "unit": "%"}, {"measurement": "Percentage of cells in G0-G1 stage", "setting": "U-251 cells [2]; 25 μM, 24 hours", "value": 48.5, "unit": "%"}, {"measurement": "Percentage of cells in G2-M stage", "setting": "U-251 cells [2]; 25 μM, 24 hours", "value": 33.9, "unit": "%"}, {"measurement": "Percentage of cells in S stage", "setting": "U-251 cells [2]; 25 μM, 24 hours", "value": 17.5, "unit": "%"}, {"measurement": "Percentage of cells in G0-G1 stage", "setting": "U-251 cells [2]; 50 μM, 24 hours", "value": 77.1, "unit": "%"}, {"measurement": "Percentage of cells in G2-M stage", "setting": "U-251 cells [2]; 50 μM, 24 hours", "value": 13.3, "unit": "%"}, {"measurement": "Percentage of cells in S stage", "setting": "U-251 cells [2]; 50 μM, 24 hours", "value": 9.5, "unit": "%"}, {"measurement": "cell-cycle arresting concentration, fold lower than acyclovir and valproic acid", "setting": "U-251 cells [2]; 25-50 μM vs 1 mM", "value": "at least 20 fold"}, {"measurement": "phase of cell-cycle arrest", "setting": "U-251 cells [2]; 25-50 μM, 24 hours", "value": "G0-G1 phase"}, {"measurement": "IC50", "setting": "4T1 cells", "value": 33.7, "unit": "µM"}, {"measurement": "lung weight", "setting": "[3]", "value": "reduction in lung weight"}, {"measurement": "number of observed lung lesions", "setting": "[3]", "value": "reduction in the number of observed lung lesions"}]}
